Earlier results on one sequence are cited in PMC7150867, “Molecular Imaging of Galectin-1 Expression as a Biomarker of Papillary Thyroid Cancer by Using Peptide-Functionalized Imaging Probes” (Biology, 2020).

On this series, the source says: To validate the effectiveness of gal-1-targeted peptides, another type of probe and therefore imaging of thyroid cancer was explored. Owing to its high sensitivity, in the order of nanomolar, resolution in the range of 50–130 µm, and nonionizing radiation, FLI appears as a promising imaging technique in the field of biomedical research and clinical diagnosis of a wide range of pathologies. In oncology, FLI enables early diagnosis and the depiction of the extent of cancer invasion, improving the accuracy of tumor resection.

For “YSWHIDIVAPRN [Peptide P7, gal-1-targeted 12-mer linear peptide identified by phage display]”, the LogP (as a rule, the decadic logarithm of the partition coefficient of the neutral form, usually between octanol and water) is 1.02. Also, for the setting “pH 7.4”, the LogD7.4 is listed as −7.63.
